Test results taken from the NIST ThermoML archive (doi:10.1016/j.tca.2015.03.016).
“And” between values parts separate entries of the source, which are not always exact repeats. Equal values may be shown once. ± gives the expanded uncertainty stated by the source.

Conditions: Liquid, Transpiration method

NC1CCCCC1 [cyclohexylamine]
Conditions	vapor or sublimation pressure [kPa]
283.2 K	0.4635 ± 0.029
286.2 K	0.5583 ± 0.035
290.1 K	0.7237 ± 0.045
293.3 K	0.9124 ± 0.057
296.2 K	1.06 ± 0.066
298.1 K	1.182 ± 0.074
299.3 K	1.28 ± 0.08
302.3 K	1.541 ± 0.096
305.3 K	1.788 ± 0.11
308.3 K	2.115 ± 0.13

CN(C)C1CCCCC1 [N,N-dimethylcyclohexylamine]
Conditions	vapor or sublimation pressure
275.3 K	0.0902 ± 0.0058 kPa and 0.0943 ± 0.006 kPa
275.4 K	0.0923 ± 0.0058 kPa
278.3 K	0.1123 ± 0.0071 kPa
281.2 K	0.1456 ± 0.0093 kPa
284.2 K	0.1766 ± 0.011 kPa
287.2 K	0.2125 ± 0.013 kPa
290.3 K	0.2601 ± 0.016 kPa
293.2 K	0.3186 ± 0.02 kPa
296.2 K	0.383 ± 0.024 kPa
299.2 K	0.472 ± 0.029 kPa
302.2 K	0.5659 ± 0.035 kPa
305.3 K	0.6634 ± 0.041 kPa
308.3 K	0.8071 ± 0.05 kPa
311.2 K	0.912 ± 0.057 kPa
314.3 K	1.106 ± 0.069 kPa

CNC1CCCCC1 [N-methylcyclohexylamine]
Conditions	vapor or sublimation pressure [kPa]
275.2 K	0.1412 ± 0.0091
278.2 K	0.1788 ± 0.011
281.2 K	0.2211 ± 0.014
284.2 K	0.2727 ± 0.017
287.2 K	0.3362 ± 0.021
290.4 K	0.4224 ± 0.026
293.2 K	0.4889 ± 0.031
296.2 K	0.606 ± 0.038
299.2 K	0.7392 ± 0.046
302.2 K	0.8882 ± 0.055
305.2 K	1.044 ± 0.065
308.3 K	1.278 ± 0.08
311.2 K	1.51 ± 0.094
314.2 K	1.784 ± 0.11

C1CCC(NC2CCCCC2)CC1 [N-cyclohexylcyclohexanamine]
Conditions	vapor or sublimation pressure [kPa]
295.4 K	0.00322 ± 0.00026
298.3 K	0.00416 ± 0.00031
301.2 K	0.0055 ± 0.00039
304.2 K	0.00706 ± 0.00048
307.2 K	0.00889 ± 0.00061
310.2 K	0.01123 ± 0.00076
313.2 K	0.01433 ± 0.00094
315.1 K	0.0165 ± 0.0011
318.3 K	0.02093 ± 0.0014
321.2 K	0.02576 ± 0.0017
324.2 K	0.03192 ± 0.002
327.2 K	0.03941 ± 0.0025
330.2 K	0.0492 ± 0.0031
333.2 K	0.05903 ± 0.0037
